Format in all cases: biochemical
The test system of one test is aggrecanase. The experiment in a line: Aggrecanase activity from rat chondrosarcoma cell supernatant, rAgg1mut cleavage detected by BC-3 Western blot. To be noted: RCS cell culture supernatant, 1 h preincubation, 4 h incubation with rAgg1mut. The method, then: Preparation and determination of the enzymatic activity of the catalytic domain of aggrecanase using rat chondrosarcoma cells:
For the generation of the as yet not identified “aggrecanase” activity, rat chondrosarcoma cells (RCS) were used. Lark et al.; 270 J. BIOL. CHEM. 2550 (1995). These cells were inoculated into 96-well cell culture plates precoated with poly-L-lysine (80,000 cells/well). After stimulation of the RCS cells with retinoic acid (0.67 μM) and an incubation time of 47 hours (h) at 37° C. and 5% CO2, these cells generate the “aggrecanase” activity. The test substance compound 1 was then preincubated for 1 h in the “aggrecanase”-containing cell culture supernatant before 5 μg of eucaryotic rAgg1mut (Buttner et al., 333 BIOCHEM. J. 159 (1998); Hughes et al., 272 J. BIOL. CHEM. 20269 (1997)) were added for the detection of the “aggrecanase” cleavage activity in the cell culture supernatant of the RCS cells. After an incubation time of 4 h, the cell culture supernatant was removed and the cleavage products of the rAgg1mut fusion proteins generated by the “aggrecanase” activity were detected by means of SDS-polyacrylamide gel electrophoresis and Western Blot analyses with the monoclonal antibody BC-3. Hughes et al., 305 BIOCHEM. J. 799 (1995). […] The less cleaved rAgg1mut was detected, the more efficacious was the tested compound of the formula I.
The IC50 values listed in Table 3 are determined as those inhibitor concentrations which in each case led to a 50% inhibition of the enzyme aggrecanase.
(Immunoblotting shows a protein as a band on a membrane.)

A further test addresses T1, stromelysin (MMP-3) (Homo sapiens, UniProt P08254).
T1 construct: enzymatic activity of the catalytic domain of human stromelysin; made in house
Kind of test: Enzymatic activity of the catalytic domain of human stromelysin, fluorogenic substrate. To be noted: pH 6.5, 15 min preincubation. As to the method:
(§1) Preparation and determination of the enzymatic activity of the catalytic domain of human stromelysin and of neutrophil collagenase.
(§2) The two enzymes—stromelysin (“MMP-3”) and neutrophil collagenase (“MMP-8”)—were prepared according to Ye et al., 31 BIOCHEMISTRY 11231 (1992). For the measurement of the enzyme activity or of the enzyme inhibitor action, 70 μl of buffer solution and 10 μl of enzyme solution are incubated for 15 minutes with 10 μl of a 10% strength (v/v) aqueous dimethyl sulfoxide solution which optionally contains the enzyme inhibitor. After addition of 10 μl of a 10% strength (v/v) aqueous dimethyl sulfoxide solution which contains 1 mmol/l of the substrate, the enzyme reaction is monitored by fluorescence spectroscopy (328 nm (ex)/393 nm(em)).
(§3) The enzyme activity is shown as extinction increase/minute. The IC50 values listed in Table 2 are determined as those inhibitor concentrations which in each case lead to a 50% inhibition of the enzyme.
(§4) The buffer solution contains 0.05% Brij (Sigma, Deisenhofen, Germany) and 0.1 mol/l of tris/HCl, 0.1 mol/l of NaCl, 0.01 mol/l of CaCl2 and 0.1 mol/l of piperazine-N,N′-bis[2-ethanesulfonic acid] (pH=6.5).
(§5) The enzyme solution contains 5 μg/ml of one of the enzyme domains prepared according to Ye et al. The substrate solution contains 1 mmol/l of the fluorogenic substrate (7-methoxycoumarin4-yl)acetyl-Pro-Leu-Gly-Leu-3-(2′,4′-dinitrophenyl)-L-2,3-diaminopropionyl-Ala-Arg-NH2 (Bachem, Heidelberg, Germany).

The target of test [1] is T2, neutrophil collagenase (MMP-8) (Homo sapiens, UniProt P22894).
T2 construct: catalytic domain of human stromelysin and of neutrophil collagenase; made in house
The experiment in a line: Enzymatic activity of the catalytic domain of neutrophil collagenase, fluorogenic substrate. Particulars: pH 6.5, 15 min preincubation. As to the method: as §1, §2, §3, §4, §5

Structures are written as SMILES.

T1 sequence (P08254 100-272 limits assumed): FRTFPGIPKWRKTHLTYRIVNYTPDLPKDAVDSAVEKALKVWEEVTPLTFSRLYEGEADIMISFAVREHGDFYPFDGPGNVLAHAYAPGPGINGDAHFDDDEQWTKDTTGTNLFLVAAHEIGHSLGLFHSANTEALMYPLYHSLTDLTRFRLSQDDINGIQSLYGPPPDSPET
T2 sequence (P22894 100-262 limits assumed): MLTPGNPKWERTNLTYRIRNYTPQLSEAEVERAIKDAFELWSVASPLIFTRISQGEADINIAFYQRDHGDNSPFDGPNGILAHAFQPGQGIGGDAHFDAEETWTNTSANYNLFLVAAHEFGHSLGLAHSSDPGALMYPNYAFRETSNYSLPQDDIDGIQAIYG

Usually IC50 stands for the concentration that inhibits the measured activity by half. A higher IC50 goes with weaker potency. As to `O=P(O)(O)C(O)CC(NS(=O)(=O)c1ccc(-c2ccc(Cl)cc2)cc1)c1ccccc1` (stereo not drawn) [Example 8], the IC50 with aggrecanase was determined as 15000 nM.
For the compound `O=P(O)(O)C(Cc1c[nH]c2ccccc12)NS(=O)(=O)c1ccc(-c2ccc(Cl)cc2)cc1` (racemic) [Example 4, (R,S)-[1-(4′-Chlorobiphenyl-4-sulfonylamino)-2-(1H-indol-3-yl)-ethyl]phosphonic acid], the IC50 at stromelysin (MMP-3) amounted to 500 nM; in test [1], 60 nM; with aggrecanase, 12000 nM.
Consider `CC(C)[C@H](NS(=O)(=O)CCc1ccc(-c2ccc(Cl)cc2)cc1)P(=O)(O)O` [Example 25], for which the IC50 came to 3 nM on stromelysin (MMP-3) and 2 nM in test [1].
For the compound `O=P(O)(O)CCNS(=O)(=O)c1ccc(-c2ccc(N3CCCC3)cc2)cc1` [Example 16], the IC50 in the test on aggrecanase stood at 28000 nM.
`CC(C)[C@@H](NS(=O)(=O)c1ccc(-c2ccc(Cl)cc2)cc1)P(=O)(O)O` [Example 18]: the results for the IC50 (on stromelysin (MMP-3); in test [1]; in the test on aggrecanase) were 10000 nM, 1000 nM and 60000 nM, respectively.
For the compound `O=P(O)(O)CCNS(=O)(=O)c1ccc(-c2ccc(Cl)cc2)cc1` [Example 13], half-maximal inhibition in the test on aggrecanase (IC50) was put at 50000 nM. That is a double-digit micromolar value.
Take `CC(NS(=O)(=O)c1ccc(-c2ccc(Cl)cc2)cc1)P(=O)(O)O` (racemic) [Example 5, (R,S)-[1-(4′-Chlorobiphenyl-4-sulfonylamino)ethyl]phosphonic acid]: the values for the IC50 (against stromelysin (MMP-3); in test [1]; in the test on aggrecanase) were 100 nM, 5 nM and 25000 nM, respectively.
`CCCCOc1ccc(S(=O)(=O)N[C@@H](C(C)C)P(=O)(O)O)cc1` [Example 24]: the IC50 against stromelysin (MMP-3) came out at 400 nM; in test [1], 30 nM.
With `CC(C)[C@H](NS(=O)(=O)c1ccc(-c2ccc(Cl)cc2)cc1)P(=O)(O)O` [Example 1, (R)-[1-(4′-Chlorobiphenyl-4-sulfonylamino)-2-methylpropyl]-phosphonic acid], the IC50 against stromelysin (MMP-3) was 6 nM; in test [1], 1 nM; in the test on aggrecanase it was 600 nM.
On the same counts, the results for `CC(NS(=O)(=O)c1ccc(-c2ccc(N3CCCC3)cc2)cc1)P(=O)(O)O` (stereo not drawn) [Example 22] are 20 nM, 20 nM and 8300 nM.
`O=C(O)C(CP(=O)(O)O)NS(=O)(=O)c1ccc(-c2ccc(N3CCCC3)cc2)cc1` (stereo not drawn) [Example 17] gave a half-inhibitory concentration (IC50) with aggrecanase of 69000 nM.
Still for that read-out and setting: the figure for `O=C(O)C(CCP(=O)(O)O)NS(=O)(=O)c1ccc(-c2ccc(Cl)cc2)cc1` (stereo not drawn) [Example 14] is 55000 nM.
As for `CC(NS(=O)(=O)CCc1ccc(-c2ccc(Cl)cc2)cc1)P(=O)(O)O` (stereo not drawn) [Example 20], the results for the IC50 (at stromelysin (MMP-3); in test [1]; in the test with aggrecanase) were 8 nM, 2 nM and 4700 nM, respectively.
In the test on aggrecanase, `CCOP(=O)(O)C(O)CC(NS(=O)(=O)c1ccc(-c2ccc(Cl)cc2)cc1)c1ccccc1` (stereo not drawn) [Example 15] showed an IC50 of 67000 nM.
Turning to `CC(C)CC(NS(=O)(=O)c1ccc(-c2ccc(Cl)cc2)cc1)P(=O)(O)O` (racemic) [Example 6, (R,S)-[1-(4′-chlorobiphenyl-4-sulfonylamino)-3-methylbutyl]-phosphonic acid], the values for the IC50 (on stromelysin (MMP-3); in test [1]; in the test with aggrecanase) were 30 nM, 3 nM and 2400 nM, respectively.
On to `O=C(O)C(CCC(NS(=O)(=O)c1ccc(-c2ccc(Cl)cc2)cc1)P(=O)(O)O)NS(=O)(=O)c1ccc(-c2ccc(Cl)cc2)cc1` (stereo not drawn) [Example 21], for which the IC50 with aggrecanase came to 520 nM.
Turning to `CC(C)[C@H](NS(=O)(=O)c1ccc(-c2ccc(N3CCCC3)cc2)cc1)P(=O)(O)O` [Example 19], the IC50 stood at 5 nM at stromelysin (MMP-3) and 2 nM in test [1].
In the test with aggrecanase, `O=C(O)C(CP(=O)(O)O)NS(=O)(=O)c1ccc(-c2ccc(Cl)cc2)cc1` (stereo not drawn) [Example 12] gave a concentration for half-maximal inhibition (IC50) of 50000 nM.
In the test with aggrecanase, `COP(=O)(OC)C(O)CC(NS(=O)(=O)c1ccc(-c2ccc(Cl)cc2)cc1)c1ccc(C(F)(F)F)cc1` (stereo not drawn) [Example 10] displayed an IC50 of 2100 nM.
For `O=P(O)(O)C(NS(=O)(=O)c1ccc(-c2ccc(Cl)cc2)cc1)c1ccccc1` (racemic) [Example 3, (R,S)-[(4′-Chlorobiphenyl-4-sulfonylamino)phenylmethyl]-phosphonic acid], the IC50 worked out at 100 nM against stromelysin (MMP-3), 7 nM in test [1] and 22000 nM with aggrecanase.
Regarding `CCOP(=O)(O)C(NS(=O)(=O)c1ccc(-c2ccc(Cl)cc2)cc1)c1ccccc1` (racemic) [Example 2, Monoethyl (R,S)-[1-(4′-chlorobiphenyl-4-sulfonylamino)-1-phenylmethyl]phosphonate], the results for the IC50 (on stromelysin (MMP-3); in test [1]; in the test with aggrecanase) were 5000 nM, 200 nM and 79000 nM, respectively.
